Test results as given in article PMC11538706, “Integrated Electrochemical Aptamer Biosensing and Colorimetric pH Monitoring via Hydrogel Microneedle Assays for Assessing Antibiotic Treatment” (Advanced Science, 2024).
Read-outs that look alike come from different tables or passages of the source.

Experiments:
[1] = test system: GEN aptamer; assay: Specificity test of GEN aptamer-modified Flex electrode; type: binding; conditions: buffer 1X PBS + 2 mM MgCl2; SWV; TOBI 10 µM, DOX 100 ng/mL
Procedure: Additionally, employing the “dual‐frequency” method reduced the batch‐to‐batch variability and improved the sensor response (Figure S6, Supporting Information).
To determine the signal‐on and signal‐off frequencies for each of these aptamers, the aptamer‐modified Flex electrode was first dipped in a blank buffer and scanned (via SWV) at a range of frequencies (Ref). […] The sensor response at each target concentration and for each frequency was calculated via (I – I0) / I0, where “I” is the observed current (SWV peak height) at each condition, and “I0” is the observed current in the blank buffer. As a result, the frequency of 5 and 100 were selected as the signal‐off and signal‐on for the VAN aptamer. […] Afterward (and for the rest of the experiments), the sensor's response is defined as (I – I0) / I0, where the “I” represents the dual‐frequency current (I signal‐on / I signal‐off) at the experimental condition and “I0” represents the dual frequency current (I signal‐on / I signal‐off) of the (0 µM) buffer. To validate the selectivity of HMN‐Flex for VAN/GEN the aptamer‐functionalized Flex electrodes were subjected to non‐specific targets commonly present in ISF and their responses were recorded.

[2] = PK analysis: Cmax and AUC from PK models fitted to serum and ISF concentrations; type: in vivo, Male Sprague Dawley rats; conditions: male, Sprague Dawley, rat, iv
Procedure: The estimation of PK parameters, such as the area under the time‐concentration level curve (AUC) and the peak concentrations (Cmax) was performed using two PK models describing the observed patterns of serum and ISF concentrations (Figure S13, Supporting Information) and the Spearman correlation test was used to assess the correlation between PK parameters in serum and ISF.^[ [53] ^] The ISF VAN concentrations used for PK analysis were drawn by interpolating the sensor's response in the VAN calibration curve. The VAN AUC and Cmax from ISF and serum were correlated with correlation values of 0.82 and 0.79, respectively (Figure 5c‐iii).
We also employed the HMN‐Flex assay for detecting GEN in ISF and drawing its PK profile. […] For this purpose, the HMN‐Flex response was monitored every 10 min up to 90 min, followed by two other measurements at 6‐ and 24‐hours (h) postinjection. […] To the best of our knowledge, this is the first time reporting the changes in ISF GEN levels in the rat animal models. […] Importantly, the PK measurements obtained using HMN‐Flex closely matched those derived from conventional blood‐based measurements while the high temporal resolution offered by the HMN‐Flex assay can potentially revolutionize the current TDM.
Two distinct PK models were utilized for this purpose: one for describing antibiotic concentrations in serum, using a 1‐compartment PK model with linear elimination, and another for ISF, consisting of three compartments in series. The model fitting process was carried out using the first‐order conditional estimation method with interaction (FOCEI) routine in Nonmem v7.4, and subsequent PK profiles were simulated from the fitted models using the mrgsolve package in R. AUC and Cmax values were directly derived from the simulated PK profiles, and the correlation between these PK parameters in serum and ISF was assessed using the Spearman correlation test.

[3] = parameters: method as in PMID 24972859, PMID 29019915; conditions: cited from earlier work

SMILES: COc1cccc2c1C(=O)c1c(O)c3c(c(O)c1C2=O)C[C@@](O)(C(=O)CO)C[C@@H]3O[C@H]1C[C@H](N)[C@H](O)[C@H](C)O1 [DOX, Doxorubicin]
- GEN sensor response to non-specific targets [1]: did not produce a response

SMILES: NC[C@H]1O[C@H](O[C@H]2[C@H](O)[C@@H](O[C@H]3O[C@H](CO)[C@@H](O)[C@H](N)[C@H]3O)[C@H](N)C[C@@H]2N)[C@H](N)C[C@@H]1O [TOBI, Tobramycin]
- GEN sensor response to non-specific targets [1]: increase in current

SMILES: CN[C@H](CC(C)C)C(=O)N[C@H]1C(=O)N[C@@H](CC(N)=O)C(=O)N[C@H]2C(=O)N[C@H]3C(=O)N[C@H](C(=O)N[C@H](C(=O)O)c4cc(O)cc(O)c4-c4cc3ccc4O)[C@H](O)c3ccc(c(Cl)c3)Oc3cc2cc(c3O[C@@H]2O[C@H](CO)[C@@H](O)[C@H](O)[C@H]2O[C@H]2C[C@](C)(N)[C@H](O)[C@H](C)O2)Oc2ccc(cc2Cl)[C@H]1O [VAN, vancomycin]
- AUC ([2]; in vivo, 15 mg/kg, VAN, Rat # 1, dose 15 mg/kg i.v., read-out: ISF AUC (converted)): 37 µM·h
- Cmax ([2]; in vivo, 15 mg/kg, VAN, Rat # 1, dose 15 mg/kg i.v., read-out: ISF Cmax): 28.3 µM
- AUC ([2]; in vivo, 15 mg/kg, VAN, Rat # 1, dose 15 mg/kg i.v., read-out: Serum AUC (converted)): 59.1 µM·h
- Cmax ([2]; in vivo, 15 mg/kg, VAN, Rat # 1, dose 15 mg/kg i.v., read-out: Serum Cmax): 117 µM
- AUC ([2]; in vivo, 15 mg/kg, VAN, Rat # 2, dose 15 mg/kg i.v., read-out: ISF AUC (converted)): 8.72 µM·h
- Cmax ([2]; in vivo, 15 mg/kg, VAN, Rat # 2, dose 15 mg/kg i.v., read-out: ISF Cmax): 8.4 µM
- AUC ([2]; in vivo, 15 mg/kg, VAN, Rat # 2, dose 15 mg/kg i.v., read-out: Serum AUC (converted)): 50.8 µM·h
- Cmax ([2]; in vivo, 15 mg/kg, VAN, Rat # 2, dose 15 mg/kg i.v., read-out: Serum Cmax): 99.9 µM
- AUC ([2]; in vivo, 45 mg/kg, VAN, Rat # 1, dose 45 mg/kg i.v., read-out: ISF AUC (converted)): 139 µM·h
- Cmax ([2]; in vivo, 45 mg/kg, VAN, Rat # 1, dose 45 mg/kg i.v., read-out: ISF Cmax): 94.5 µM
- AUC ([2]; in vivo, 45 mg/kg, VAN, Rat # 1, dose 45 mg/kg i.v., read-out: Serum AUC (converted)): 216 µM·h
- Cmax ([2]; in vivo, 45 mg/kg, VAN, Rat # 1, dose 45 mg/kg i.v., read-out: Serum Cmax): 254 µM
- AUC ([2]; in vivo, 45 mg/kg, VAN, Rat # 2, dose 45 mg/kg i.v., read-out: ISF AUC (converted)): 51.3 µM·h
- Cmax ([2]; in vivo, 45 mg/kg, VAN, Rat # 2, dose 45 mg/kg i.v., read-out: ISF Cmax): 36.5 µM
- AUC ([2]; in vivo, 45 mg/kg, VAN, Rat # 2, dose 45 mg/kg i.v., read-out: Serum AUC (converted)): 184 µM·h
- Cmax ([2]; in vivo, 45 mg/kg, VAN, Rat # 2, dose 45 mg/kg i.v., read-out: Serum Cmax): 239 µM

SMILES: CNC(C)C1CCC(N)C(OC2C(N)CC(N)C(OC3OCC(C)(O)C(NC)C3O)C2O)O1 (centres unmarked) [GEN, gentamicin]
- protein binding [3]: 30%
- AUC ([2]; ISF, 50 mg/kg, GEN, Rat # 4, dose 50 mg/kg i.v., read-out: ISF AUC (converted)): 1070 µM·h
- Cmax ([2]; ISF, 50 mg/kg, GEN, Rat # 4, dose 50 mg/kg i.v., read-out: ISF Cmax): 221 µM
- AUC ([2]; ISF, 50 mg/kg, GEN, Rat # 5, dose 50 mg/kg i.v., read-out: ISF AUC (converted)): 1230 µM·h
- Cmax ([2]; ISF, 50 mg/kg, GEN, Rat # 5, dose 50 mg/kg i.v., read-out: ISF Cmax): 387 µM
- AUC ([2]; ISF, 100 mg/kg, GEN, Rat # 6, dose 100 mg/kg i.v., read-out: ISF AUC (converted)): 3490 µM·h
- Cmax ([2]; ISF, 100 mg/kg, GEN, Rat # 6, dose 100 mg/kg i.v., read-out: ISF Cmax): 886 µM
- AUC ([2]; interstitial fluid (ISF), 50 mg/kg, GEN, Rat # 2, dose 50 mg/kg i.v., read-out: ISF AUC (converted)): 509 µM·h
- Cmax ([2]; interstitial fluid (ISF), 50 mg/kg, GEN, Rat # 2, dose 50 mg/kg i.v., read-out: ISF Cmax): 148 µM
- AUC ([2]; interstitial fluid (ISF), 50 mg/kg, GEN, Rat # 3, dose 50 mg/kg i.v., read-out: ISF AUC (converted)): 776 µM·h
- Cmax ([2]; interstitial fluid (ISF), 50 mg/kg, GEN, Rat # 3, dose 50 mg/kg i.v., read-out: ISF Cmax): 253 µM
- AUC ([2]; interstitial fluid (ISF), 100 mg/kg, GEN, Rat # 1, dose 100 mg/kg i.v., read-out: ISF AUC (converted)): 848 µM·h
- Cmax ([2]; interstitial fluid (ISF), 100 mg/kg, GEN, Rat # 1, dose 100 mg/kg i.v., read-out: ISF Cmax): 279 µM
- AUC ([2]; interstitial fluid (ISF), 100 mg/kg, GEN, Rat # 2, dose 100 mg/kg i.v., read-out: ISF AUC (converted)): 827 µM·h
- Cmax ([2]; interstitial fluid (ISF), 100 mg/kg, GEN, Rat # 2, dose 100 mg/kg i.v., read-out: ISF Cmax): 324 µM
- AUC ([2]; serum, 50 mg/kg, GEN, Rat # 2, dose 50 mg/kg i.v., read-out: Serum AUC (converted)): 467 µM·h
- Cmax ([2]; serum, 50 mg/kg, GEN, Rat # 2, dose 50 mg/kg i.v., read-out: Serum Cmax): 680 µM
- AUC ([2]; serum, 50 mg/kg, GEN, Rat # 3, dose 50 mg/kg i.v., read-out: Serum AUC (converted)): 321 µM·h
- Cmax ([2]; serum, 50 mg/kg, GEN, Rat # 3, dose 50 mg/kg i.v., read-out: Serum Cmax): 807 µM
- AUC ([2]; serum, 50 mg/kg, GEN, Rat # 4, dose 50 mg/kg i.v., read-out: Serum AUC (converted)): 108 µM·h
- Cmax ([2]; serum, 50 mg/kg, GEN, Rat # 4, dose 50 mg/kg i.v., read-out: Serum Cmax): 268 µM
- AUC ([2]; serum, 50 mg/kg, GEN, Rat # 5, dose 50 mg/kg i.v., read-out: Serum AUC (converted)): 2380 µM·h
- Cmax ([2]; serum, 50 mg/kg, GEN, Rat # 5, dose 50 mg/kg i.v., read-out: Serum Cmax): 4100 µM
- AUC ([2]; serum, 100 mg/kg, GEN, Rat # 1, dose 100 mg/kg i.v., read-out: Serum AUC (converted)): 2410 µM·h
- Cmax ([2]; serum, 100 mg/kg, GEN, Rat # 1, dose 100 mg/kg i.v., read-out: Serum Cmax): 1870 µM
- AUC ([2]; serum, 100 mg/kg, GEN, Rat # 2, dose 100 mg/kg i.v., read-out: Serum AUC (converted)): 1120 µM·h
- Cmax ([2]; serum, 100 mg/kg, GEN, Rat # 2, dose 100 mg/kg i.v., read-out: Serum Cmax): 1320 µM
- AUC ([2]; serum, 100 mg/kg, GEN, Rat # 6, dose 100 mg/kg i.v., read-out: Serum AUC (converted)): 3380 µM·h
- Cmax ([2]; serum, 100 mg/kg, GEN, Rat # 6, dose 100 mg/kg i.v., read-out: Serum Cmax): 4280 µM
